Data taken from patent US9422231B2, “Method for inhibiting Trypanosoma cruzi” (HOWARD UNIVERSITY, priority 2011, dated 2016).
Values joined by “and” are separate entries in the source; they are usually repeats but may differ in a detail not shown here. Equal entries are not always repeated. Where two headings read alike, the source gives them in different places.

Legend:
[1] = system: Trypanosoma cruzi epimastigotes (Tulahuen CL98 strain); assay: Antitrypanosomal activity against Trypanosoma cruzi epimastigotes (parasite count); assay type: cell-based; settings: for IC50: T. cruzi epimastigotes, 48 h, mean ± S.E. of three experiments, read-out: Antitrypanocidal activity IC50; for Selectivity Index (Cytotoxicity/Activity): ratio of IC50 for fibroblast cells/IC50 for parasites; for Selectivity index greater/better than nifurtimox: in vitro selectivity index relative to nifurtimox
Procedure: (§1) The antitrypanosomal activity against Trypanosoma cruzi was assayed. Trypanosoma cruzi epimastigotes (Tulahuen CL98 strain) were cultured in liver infusion trypose (LIT) medium supplemented with 10% fetal bovine serum (FBS) at 28° C., with an inoculum of 1×10^5 cells/ml. […] All assays were carried out in triplicate. […] The data were subjected to statistical analysis. All experiments were done in triplicate, the means and standard errors (S.E.) were determined. Data were analyzed by one way ANOVA and Tukey's multiple comparison test using GraphPad PRISM software version 5.00. P<0.05 was considered significant.

[2] = system: Balb/C 3T3 mouse fibroblasts (clone A31); assay: MTT cytotoxicity assay on Balb/C 3T3 mouse fibroblasts; assay type: cell-based; settings: for IC50: 48 h; for Cytotoxicity compared with nifurtimox: Balb/C 3T3 mouse fibroblast cell line, FIG. 4
Procedure: (§2) A cytotoxicity assay was performed with representive analogs IMNDQ1 through IMNDQ11. […] MTT is a yellow tetrazolium salt that is reduced to purple formazan crystals by metabolically active cells. Cells (2.2×10^4 cells/well) were seeded in 96-well plate in Improved Minimum Essential Medium (IMEM). […] After 48 h incubation at 37° C. in the presence 5% CO2, the medium was aspirated and the cells washed twice to remove traces of chemical compounds. IMEM without phenol containing 10% (v/v) of 3 mg/ml MTT were added to each well. The plates were incubated for 4 h at 37° C. followed by aspiration. The plates were dried for 1 h in a 37° C. incubator. 100 μl of 0.04 N HCl in isopropanol were added to each well and incubated at room temperature (27° C.) in the dark for 2 h to dissolve the formazan crystals. The absorbance was measured spectrophotometrically at 570 nm in a plate reader. The concentration that reduces cell viability by 50% (IC50) was calculated for each compound. The toxicity for mammalian cells and the activity against T. cruzi were compared by calculating the selectivity index (SI), the ratio of IC50 for fibroblast cells/IC50 for parasites. The data were subjected to statistical analysis. All experiments were done in triplicate, the means and standard errors (S.E.) were determined. Data were analyzed by one way ANOVA and Tukey's multiple comparison test using GraphPad PRISM software version 5.00. P<0.05 was considered significant.

[3] = biological target: purified Trypanosoma cruzi tublin (Trypanosoma cruzi, UniProt P08562+Q27352); assay: Tubulin assembly assay; assay type: biochemical; settings: purified T. cruzi tubulin 1.2 mg/ml, absorbance at 405 nm, 30° C.; read-out: Tubulin polymerization Inhibition IC50
Procedure: Tubulin assembly assays were conducted to assess tubulin polymerization inhibition. The assays were conducted in a 96-well microplate. Assembly reactions were conducted in a buffer containing 0.1 M PIPES (pH 6.9), 1 mM EGTA, 5 mM Mgcl, 1.2 mg/ml purified Trypanosoma cruzi tublin, at concentrations (0.6-40 μM) of the imido-substituted 1,4-naphthoquinone (IMDNQ 1-IMDNQ 11). Components of the reaction mixtures were added to the microplate and assembly was initiated by the addition of 1 mM GTP. The assembly reactions were assayed photometrically by measuring the absorbance at 405 nm using a microplate reader at 30° C.

T. cruzi epimastigotes = settings: Ramos et al., 2009; cited from earlier work
[4] = MTT cytotoxicity assay on Balb/C 3T3 mouse fibroblasts; assay type: cell-based; settings: mouse, Cytotoxicity IC50
Procedure: as §2

[5] = Antitrypanosomal activity against Trypanosoma cruzi epimastigotes (parasite count); assay type: cell-based; settings: mouse (fibroblasts) / Trypanosoma cruzi (parasites); ratio of IC50 for fibroblast cells/IC50 for parasites; read-out: Selectivity Index (Cytotoxicity/Activity)
Procedure: as §1

[6] = Balb/C 3T3 mouse fibroblasts, MTT, mean ± S.E. of three experiments, read-out: Cytotoxicity IC50

Question: For `O=C1C(Cl)=C(N(C(=O)CCl)C(=O)CCl)C(=O)c2ccccc21` [IMDNQ11], which IC50 [1] is on record?
Answer: 6100 ± 380 nM

Question: And the “Selectivity Index (Cytotoxicity/Activity)” value [1]?
Answer: 3.20 ± 0.44

Question: And the IC50 [2, 6]?
Answer: 19.7 ± 3.71 µM

Question: What about the IC50 [3] of the same molecule?
Answer: > 40 µM

Question: With `CC(C)(C)c1ccc(C(=O)N(C(=O)c2ccc(C(C)(C)C)cc2)C2=C(Cl)C(=O)c3ccccc3C2=O)cc1` [Example 24, 2-bis-(4-tert-butylbenzoyl)amino-3-chloro-1,4-naphthoquinone] as the molecule, how does the melting point read?
Answer: 257 to 260 °C

Question: Which LD50 (T. cruzi epimastigotes) does the source give for `O=C1C(c2ccccc2)=C(c2ccccc2)C(=O)c2ccccc21` [2,3-diphenyl-1,4-naphthoquinone] here?
Answer: 2.5 µM

Question: Which IC50 [1] does the source give for `O=C1C(Cl)=C(N(C(=O)c2ccc(F)cc2)C(=O)c2ccc(F)cc2)C(=O)c2ccccc21` [IMDNQ9, N-(3-Chloro-1,4-dioxo-1,4-dihydronaphthalen-2-yl)-4-fluoro-N-(4-fluorobenzoyl)-benzamide] here?
Answer: 4070 ± 230 nM

Question: And the “Selectivity Index (Cytotoxicity/Activity)” value [1]?
Answer: 5.43 ± 0.69

Question: And the IC50 at 48 h [4]?
Answer: 21.8 µM

Question: What about the melting point of the same molecule?
Answer: 284 to 286 °C

Question: Which results are given for `O=C1C(Br)=C(N(C(=O)c2ccc(F)cc2)C(=O)c2ccc(F)cc2)C(=O)c2ccccc21` [IMDNQ5, N-(3-Bromo-1,4-dioxo-1,4-dihydronaphthalen-2-yl)-4-fluoro-N-(4-fluorobenzoyl)-benzamide]?
Answer: IC50 [1]: 2270 ± 150 nM; Selectivity Index (Cytotoxicity/Activity) [1]: 5.70 ± 0.06; IC50 at 48 h [4]: 12.8 µM; melting point: 170 to 172 °C

Question: Which IC50 [1] does the source give for `CCCC(=O)N(C(=O)CCC)C1=C(Cl)C(=O)c2ccccc2C1=O` [IMDNQ3] here?
Answer: 700 nM

Question: And the “Selectivity Index (Cytotoxicity/Activity)” value [1]?
Answer: 31.83 and 31.83 ± 3.17

Question: What about the IC50 [2, 6] of the same molecule?
Answer: 21.7 µM

Question: What about the IC50 [3] of the same molecule?
Answer: 3.2 µM

Question: For `O=C1C(Cl)=C(N(C(=O)c2ccc(Cl)cc2)C(=O)c2ccc(Cl)cc2)C(=O)c2ccccc21` [IMDNQ7, 4-Chloro-N-(4-chlorobenzoyl)-N-(3-chloro-1,4-dioxo-1,4-dihydronaphthalen-2-yl)-benzamide], which IC50 ([1]; Trypanosoma cruzi, TULAHUEN) is on record?
Answer: 1270 ± 150 nM

Question: What about the “Selectivity Index (Cytotoxicity/Activity)” value [1] of the same molecule?
Answer: 14.23 ± 1.62

Question: What about the IC50 ([2]; mouse) of the same molecule?
Answer: 17.8 ± 2.21 µM

Question: And the melting point?
Answer: 212 to 213 °C

Question: Which results are given for `O=C1C(Cl)=C(N2C(=O)CCC2=O)C(=O)c2ccccc21` [IMDNQ1, 2-chloro-3-(N-succinimidyl)-1,4-naphthoquinone]?
Answer: IC50 [1]: 2770 nM; Selectivity index greater/better than nifurtimox [1]: at least 300%; Selectivity Index (Cytotoxicity/Activity) [1]: 60.25 and 60.25 ± 2.79; Cytotoxicity compared with nifurtimox [2]: far less cytotoxic than nifurtimox; IC50 [2, 6]: > 100 µM and 166 µM; IC50 [3]: 6 µM

Question: With `O=C1C(Cl)=C(N(C(=O)c2ccccc2)C(=O)c2ccccc2)C(=O)c2ccccc21` [Example 20, 2-Dibenzoylamino-3-chloro-1,4-naphthoquinone] as the molecule, how does the melting point read?
Answer: 294 to 297 °C

Question: With `CC1CS(=O)(=O)CCN1/N=C/c1ccc([N+](=O)[O-])o1` (stereo not shown) [Nifurtimox, reference compound] as the molecule, how does the IC50 [1] read?
Answer: 10700 nM

Question: Which melting point does the source give for `COc1ccc(C(=O)N(C(=O)c2ccc(OC)cc2)C2=C(Cl)C(=O)c3ccccc3C2=O)cc1` [Example 28, 2-bis-(4-methoxybenzoyl)amino-3-chloro-1,4-naphthoquinone] here?
Answer: 283 to 287 °C

Question: For `O=C1C(Br)=C(N(C(=O)c2ccc(Cl)cc2)C(=O)c2ccc(Cl)cc2)C(=O)c2ccccc21` [Example 23, 2-bis-(4-chlorobenzoyl)amino-3-bromo-1,4-naphthoquinone], which melting point is on record?
Answer: 266 to 269 °C

Question: Which IC50 [1] does the source give for `O=C1C(Cl)=C(N2C(=O)COCC2=O)C(=O)c2ccccc21` [IMDNQ4] here?
Answer: 4930 ± 640 nM

Question: And the “Selectivity Index (Cytotoxicity/Activity)” value [1]?
Answer: 7.43 ± 0.97

Question: And the IC50 [2, 6]?
Answer: 35.5 ± 1.76 µM

Question: With `O=C1C(Br)=C(N(C(=O)c2ccccc2)C(=O)c2ccccc2)C(=O)c2ccccc21` [Example 21, 2-Dibenzoylamino-3-bromo-1,4-naphthoquinone] as the molecule, how does the melting point read?
Answer: 234 to 238 °C

Question: Which melting point does the source give for `O=C1C(Br)=C(N(C(=O)c2cccc(Cl)c2)C(=O)c2cccc(Cl)c2)C(=O)c2ccccc21` [Example 22, 2-bis-(3-chlorobenzoyl)amino-3-bromo-1,4-naphthoquinone] here?
Answer: 204 to 206 °C

Question: For `O=C1C(Cl)=C(N(C(=O)c2cccc(Cl)c2)C(=O)c2cccc(Cl)c2)C(=O)c2ccccc21` [IMDNQ10, 3-Chloro-N-(3-chlorobenzoyl)-N-(3-chloro-1,4-dioxo-1,4-dihydronaphthalen-2-yl)-benzamide], which selectivity ratio at 48 h [5] is on record?
Answer: 275

Question: What about the IC50 ([1]; Trypanosoma cruzi, TULAHUEN) of the same molecule?
Answer: 2230 nM

Question: What about the “Selectivity index, times better than nifurtimox” value ([1]; calculated selectivity index relative to nifurtimox) of the same molecule?
Answer: about 25 times

Question: What about the “Selectivity index greater/better than nifurtimox” value [1] of the same molecule?
Answer: at least 300%

Question: And the IC50 ([2]; mouse)?
Answer: 611 ± 10.3 µM

Question: What about the IC50 [3] of the same molecule?
Answer: 8 µM

Question: What about the melting point of the same molecule?
Answer: 258 to 260 °C

Question: Which IC50 ([1]; Trypanosoma cruzi, TULAHUEN) does the source give for `O=C1C(Br)=C(N(C(=O)c2ccccc2Cl)C(=O)c2ccccc2Cl)C(=O)c2ccccc21` [IMDNQ6, N-(3-Bromo-1,4-dioxo-1,4-dihydronaphthalen-2-yl)-2-chloro-N-(2-chlorobenzoyl)-benzamide] here?
Answer: 1510 nM

Question: What about the “Selectivity Index (Cytotoxicity/Activity)” value [1] of the same molecule?
Answer: 9.43 ± 0.94

Question: And the IC50 at 48 h [4]?
Answer: 14.2 µM

Question: And the melting point?
Answer: 232 to 234 °C

Question: For `O=C1C(Cl)=C(N(C(=O)c2ccccc2Cl)C(=O)c2ccccc2Cl)C(=O)c2ccccc21` [IMDNQ8, 2-Chloro-N-(2-chlorobenzoyl)-N-(3-chloro-1,4-dioxo-1,4-dihydronaphthalen-2-yl)-benzamide], which IC50 [1] is on record?
Answer: 2670 ± 330 nM

Question: What about the “Selectivity Index (Cytotoxicity/Activity)” value [1] of the same molecule?
Answer: 10.17 ± 0.97

Question: And the IC50 at 48 h [4]?
Answer: 26.5 µM

Question: What about the melting point of the same molecule?
Answer: 217 to 218 °C

Question: What does the source list for `O=C1C(Cl)=C(N2C(=O)c3ccccc3C2=O)C(=O)c2ccccc21` [IMDNQ2]?
Answer: IC50 [1]: 4890 nM and 4830 nM; Selectivity index greater/better than nifurtimox [1]: at least 300%; Selectivity Index (Cytotoxicity/Activity) [1]: 53.97 and 53.97 ± 5.95; Cytotoxicity compared with nifurtimox [2]: far less cytotoxic than nifurtimox; IC50 [2, 6]: 253.7 ± 1.87 µM; IC50 [3]: 12 µM
